Source: patent US20100016382A1, “PHARMACEUTICAL COMPOSITION” (TAKEDA PHARMACEUTICAL COMPANY LIMITED, priority 2006, published 2010)
In brackets after ≈: the same amount, converted by molar mass.

Assay: physchem
Format: physicochemical
Conditions: 20 °C, water
Experimental: Compound A is 2-ethoxy-1-{[2′-(5-oxo-4,5-dihydro-1,2,4-oxadiazol-3-yl)biphenyl-4-yl]methyl}-1H-benzimidazole-7-carboxylic acid (melting point: 191° C., solubility in water at 20° C. of about 0.006 g/L). In the following Examples and Reference Examples, the Japanese Pharmacopoeia 14th Edition or Japanese Pharmaceutical Excipients 2003 compatible products were used as the preparation additives. Of the preparation additives, while magnesium stearate is also the Japanese Pharmacopoeia 14th Edition compatible product, like other preparation additives, it particularly has a stearic acid content ratio of not less than about 90% (Taihei Chemical Industrial Co., Ltd.).

**Q.** Which solubility does the source give for CCOc1nc2cccc(C(=O)O)c2n1Cc1ccc(-c2ccccc2-c2noc(=O)[nH]2)cc1 [Compound A, 2-ethoxy-1-{[2′-(5-oxo-4,5-dihydro-1,2,4-oxadiazol-3-yl)biphenyl-4-yl]methyl}-1H-benzimidazole-7-carboxylic acid] here?
**A.** ~6 µg/mL (≈ 13.1 µM)
